In US8951963B2, “Active cores of peptide triazole HIV-1 entry inhibitors” (priority 2009, dated 2015):
“Also recorded” adds a separate entry of the source. Where two headings read alike, the source gives them in different places. *1 amine or outer side, *2 acyl side, *3 side chain or, on linkers, in order; H or OH if unused. Where a SMILES comes first, the peptide text is derived from it. [ ]: non-standard residue; d: D form. X1 = O=C([C@@H]1C[C@H](n2cc([C]34[CH]5[CH]6[CH]7[CH]3[Fe]6754389%10[CH]4[CH]3[CH]8[CH]9[CH]4%10)nn2)CN1[*:1])[*:2]; Cit = NC(=O)NCCC[C@H](N)C(=O)O

How the values were obtained:
HIV-1 YU2 gp120 [1] = biological target: T1, HIV-1 YU2 gp120 (Human immunodeficiency virus type 1 group M subtype B, UniProt P35961); assay type: binding; details: for dissociation rate constant (koff): Table 11, dissociation rate
T1 construct: made in house; host or cells: Drosophila S2 cells
Description: Surface plasmon resonance (SPR) interaction analyses were performed on a Biacore® 3000 optical biosensor (GE). All experiments were carried out at 25° C. using standard PBS, pH 7.4, with 0.005% Surfactant P20.
Regeneration of the surface was achieved by a one 5-second pulse of 10 mM glycine, pH 1.5.
SPR data analyses were performed using BIAEvaluation 4.0 software (GE). […] Experimental data were fitted to a simple 1:1 binding model with a parameter included for mass transport. […] The inhibition curve was converted into a calibration curve by the use of a fitting function. The fitting was done using the 4-parameter equation in BIAevaluation software: […]

gp120 = biological target: T2, gp120 (Human immunodeficiency virus type 1 group M subtype B, UniProt P35961); assay type: binding, HIV-1; details: ITC, 25° C., PBS pH 7.4
T2 construct: made in house; host or cells: Drosophila S2 cells
Description: FIGS. 14A-14D are a series of graphs of calorimetric titration data of gp120 with various peptides. […] Data was obtained as 25° C. in PBS, pH 7.4. Experiments in FIGS. 14A and 14B were carried out using a VP-ITC, where 2 μM gp120 in the calorimetric cell (˜1.4 mL) was titrated with 10 μL aliquots of peptide at concentration of 30 μM.
Isothermal titration calorimetric experiments were performed using high-precision calorimetric systems of model VP-ITC or ITC20 from MicroCal Inc. The titrations were performed by stepwise addition of peptide to gp120 contained in the calorimetric cell at a constant temperature of 25° C. […] For the experiments carried out in the VP-ITC the concentration of gp120 was about 2 μM and the syringe contained the peptide at a concentration about 30 μM. For the experiment carried out using ITC20 gp120 was prepared at about 4 μM and the peptide at 50-100 μM. The solutions contained within the calorimetric cells and injector syringes were prepared in PBS, pH 7.4 and thoroughly degassed to avoid bubble formation in the calorimetric cell. The heat evolved upon each injection of the peptide solution was obtained from the integral of the calorimetric signal. The heat associated with binding of a ligand to the protein in the cell was obtained by subtracting the heat of dilution from the heat of reaction.

sCD4 = biological target: T3, sCD4 (Homo sapiens, UniProt P01730); assay: SPR control: direct binding of peptide to sCD4 surface; details: SPR control experiment
T3 construct: soluble four domain CD4 (sCD4); made in house; host or cells: CHO cells

mAb 17b = assay: SPR control: direct binding of peptide to mAb 17b surface; details: SPR control experiment
Pseudotyped HIV-1BaL = assay type: cell-based; details: Table 12; HOS.CD4.CCR5 cells, 48 hours; NA = not active; read-out: IC50 (antiviral)
[2] = tested on: viruses pseudotyped with the VSV-G envelope; assay type: cell-based
P4-CCR5 cells [3] = details: at concentrations corresponding to IC50 values; Gopi et al., 2008; cited from earlier work
HIV-1 strain BaL [4] = details: P4-CCR5 cells; Gopi et al., 2008; read-out: IC50, inhibition of infection by HIV-1 BaL; cited from earlier work
HIV-1 YU2 gp120 [5] = biological target: T1, HIV-1 YU2 gp120; assay: biochemical; assay type: binding; details: Kd (affinity) for HIV-1 YU2 gp120 as measured by SPR
Description: All surface plasmon resonance experiments (SPR) were performed on a BIA3000 optical biosensor (Biocore, Inc., Uppsala, Sweden). […] For direct binding experiments, YU2 gp120 was immobilized on the surface (˜4000 RU); peptide analytes in PBS buffer were passed over the surface at a flow rate of 50 μL/min, with 5 minute association phase and 5 minute dissociation phase. […] The indicated analytes were passed over the surfaces at a flow rate of 50 μL/minute, with 2.5 minute association phase and 2.5 minute dissociation phase.
Data analysis was performed using BIAEvaluation® 4.0 software (Biacore Inc., NJ). The responses of a buffer injection and responses from the control surface to which the mAb 2B6R was immobilized, were subtracted to account for nonspecific binding. Experimental data were fitted to a simple 1:1 Langmuir binding model with a parameter included for mass transport. The average kinetic parameters (association [ka] and dissociation [kd] rates) generated from a minimum of four datasets were used to define equilibrium association (KA) and dissociation constants (KD).

[6] = biological target: T4, HIV-1YU-2 gp120 binding to sCD4 (Human immunodeficiency virus type 1 group M subtype B, UniProt P35961); details: Table 12; 100 nM gp120; NA = not active
T4 construct: made in house; host or cells: Drosophila S2 cells (gp120); CHO cells (sCD4)
Description: (§2) Where Rhigh is the response value at high inhibitor concentrations and Rlow is response at low inhibitor concentrations. Cone is the concentration of inhibitor, and A1 and A2 are fitting parameters. At IC50 the following is true:
(§3) Under this condition, A1=Conc and is therefore taken as the desired so parameter.

[7] = biological target: T5, HIV-1YU-2 gp120 binding to mAb 17b (Human immunodeficiency virus type 1 group M subtype B, UniProt P35961); details: Table 12; 100 nM gp120; NA = not active
T5 construct: made in house; host or cells: Drosophila S2 cells (gp120)
Description: as §2, §3

HIV-1 strain BaL [8] = assay: Inhibition of HIV-1 infection, whole virus assay in P4-CCR5 cells; assay type: cell-based; details: result of one trial
HIV-1 strain BaL [9] = assay: Combination of HNG-156 and cyanovirin-N, HIV-1 BaL infection of P4-CCR5 cells; assay type: cell-based
[10] = In vitro cytotoxicity, MTT assay; assay type: cell-based; details: human; P4-CCR5 cells, 2 hours, MTT
Description: (§1) P4-CCR5 cells were seeded at a density of 4×10^4 cells/well in a 96 well plate approximately 18 hours prior to experiment. […] The cells were subsequently washed and assessed for viability using a 3-(4,5-dimethylthiazol-2-yl)-2,5-diphenyltetrazolium bromide (MTT) assay of viability (previously described in Krebs et al. (1999). Concentrations were tested in triplicate in two independent assays.

P4-CCR5 cells [11] = assay: In vitro cytotoxicity, MTT assay; assay type: cell-based; details: concentrations as high as 0.1 mg/ml
Description: as §1

Row | Compound | dissociation rate constant (koff) (HIV-1 YU2 gp120 [1]) | ΔH (gp120) | −TΔS (gp120) | IC50 (Pseudotyped HIV-1BaL) | impact on cell viability (P4-CCR5 cells [3]) | IC50 (HIV-1 strain BaL [4]) | other results
1 | CC[C@H](C)[C@H](NC(=O)[C@@H](N)CCCNC(=N)N)C(=O)N[C@@H](CC(N)=O)C(=O)N[C@@H](CC(N)=O)C(=O)N[C@H](C(=O)N1C[C@@H](n2cc([C]34[CH]5[CH]6[CH]7[CH]3[Fe]6754389%10[CH]4[CH]3[CH]8[CH]9[CH]4%10)nn2)C[C@H]1C(=O)N[C@@H](Cc1c[nH]c2ccccc12)C(N)=O)[C@@H](C)CC (stereo partly shown) [UM12] (H-RINNI[X1]W-NH2; N-terminus and C-terminus assumed) | 1.8E−03 ± 1.3 1/S | -19.7 kcal/mol | +9.9 kcal/mol | 6800 ± 300 nM | – | – | direct binding to sCD4 (sCD4): neither UM10 nor UM12 exhibited direct binding; direct binding to 17b (mAb 17b): neither UM10 nor UM12 exhibited direct binding; inhibition of negative control viruses pseudotyped with the VSV envelope [2]: Neither of these conjugates inhibited
2 | RINNIPWSEAMM [HNG-124] | – | – | – | – | no or minimal impact | 418 nM | –
3 | CC[C@H](C)[C@H](NC(=O)[C@H](CC(N)=O)NC(=O)[C@H](CC(N)=O)NC(=O)[C@@H](N)CCCNC(N)=O)C(=O)N1C[C@@H](n2cc([C]34[CH]5[CH]6[CH]7[CH]3[Fe]6754389%10[CH]4[CH]3[CH]8[CH]9[CH]4%10)nn2)C[C@H]1C(=O)N[C@@H](Cc1c[nH]c2ccccc12)C(=O)N[C@@H](CO)C(N)=O (stereo partly shown) [UM24] (H-[Cit]NNI[X1]WS-NH2; N-terminus and C-terminus assumed) | 2.9E−03 ± 1.2 1/S | -16.7 kcal/mol | +6.3 kcal/mol | – | – | – | Kd (HIV-1 YU2 gp120 [5]): ~21 nM
4 | CSCC[C@H](NC(=O)[C@H](CCSC)NC(=O)[C@H](C)NC(=O)[C@H](CCC(=O)O)NC(=O)[C@H](CO)NC(=O)[C@H](Cc1c[nH]c2ccccc12)NC(=O)[C@@H]1C[C@H](n2cc([C]34[CH]5[CH]6[CH]7[CH]3[Fe]6754389%10[CH]4[CH]3[CH]8[CH]9[CH]4%10)nn2)CN1)C(N)=O (stereo partly shown) [UM10] (H-[X1]WSEAMM-NH2; N-terminus and C-terminus assumed) | 8.90E−04 ± 1.2 1/S | – | – | 35000 ± 15000 nM | – | – | sCD4 (IC50) [6]: unable to inhibit; also recorded: no IC50 value could be calculated; affinity relative to 12 mer peptide of HNG-156 (HIV-1 YU2 gp120 [1]; lower affinity): 100 fold; direct binding to sCD4 (sCD4): neither UM10 nor UM12 exhibited direct binding; direct binding to 17b (mAb 17b): neither UM10 nor UM12 exhibited direct binding; mAb 17b (IC50) [7]: unable to inhibit; inhibition of negative control viruses pseudotyped with the VSV envelope [2]: Neither of these conjugates inhibited
5 | CC[C@H](C)[C@H](NC(=O)[C@@H](N)CCC(=O)O)C(=O)N[C@@H](CC(N)=O)C(=O)N[C@@H](CC(N)=O)C(=O)N[C@H](C(=O)N1C[C@@H](n2cc([C]34[CH]5[CH]6[CH]7[CH]3[Fe]6754389%10[CH]4[CH]3[CH]8[CH]9[CH]4%10)nn2)C[C@H]1C(=O)N[C@@H](Cc1c[nH]c2ccccc12)C(=O)N[C@@H](CO)C(N)=O)[C@@H](C)CC (stereo partly shown) [UM13] (H-EINNI[X1]WS-NH2; N-terminus and C-terminus assumed) | 3.1E−03 ± 2 1/S | – | – | 1200 ± 300 nM | – | – | –
6 | dextran sulfate | – | – | – | – | – | – | IC50 (HIV-1 strain BaL [8]): 9800 nM; IC50, inhibition of infection by HIV-1 BaL (HIV-1 strain BaL [8]): 4.9 µg/mL; Viral infectivity inhibition IC50 (HIV-1 strain BaL [9]; agent alone): 0.900 microgram/milliliter
7 | RINNIPWSEAMM [HNG-113] | – | – | – | – | no or minimal impact | 156 nM | synergy with CV-N (HIV-1 strain BaL [9]): does not synergize
8 | RINNIPWSEAMM [HNG-137] | – | – | – | – | no or minimal impact | 610 nM | –
9 | CC[C@H](C)[C@H](NC(=O)[C@@H](N)CCCNC(=N)N)C(=O)N[C@@H](CC(N)=O)C(=O)N[C@@H](CC(N)=O)C(=O)N[C@H](C(=O)N1C[C@@H](n2cc([C]34[CH]5[CH]6[CH]7[CH]3[Fe]6754389%10[CH]4[CH]3[CH]8[CH]9[CH]4%10)nn2)C[C@H]1C(=O)N[C@@H](Cc1c[nH]c2ccccc12)C(=O)N[C@@H](CO)C(=O)N[C@@H](CCC(=O)O)C(=O)N[C@@H](C)C(=O)N[C@@H](CCSC)C(=O)N[C@@H](CCSC)C(N)=O)[C@@H](C)CC (stereo partly shown) [HNG-156] | – | – | – | – | – | – | CC50 at 2 h [10]: > 59000 nM; effect on P4-CCR5 cell viability (P4-CCR5 cells [11]): no effect
10 | CC[C@H](C)[C@H](NC(=O)[C@H](CC(N)=O)NC(=O)[C@@H](N)CC(N)=O)C(=O)N1C[C@@H](n2cc([C]34[CH]5[CH]6[CH]7[CH]3[Fe]6754389%10[CH]4[CH]3[CH]8[CH]9[CH]4%10)nn2)C[C@H]1C(=O)N[C@@H](Cc1c[nH]c2ccccc12)C(N)=O (stereo partly shown) [UM17] (H-NNI[X1]W-NH2) | 6.0E−03 ± 1.25 1/S | -13.2 kcal/mol | +3.3 kcal/mol | 33000 ± 11000 nM | – | – | –
